# Data published in patent publication US20190256822A1, “HEPATIC CELL LINE RESISTANT TO DIMETHYL SULFOXIDE, CELL CULTURE AND USES THEREOF” (Academisch Medisch Centrum, priority 2016, published 2019).
# Experiments:
# [1] = test system: HepaRG+/-CAR monolayer cultures
# Experimental: At the 0 h time point the cells were incubated for 5 s to correct for non-specific binding of the added compounds to the cells and the culture plate. Medium samples of the indicated time points were immediately frozen at −80° C. Prior to HPLC analysis samples were thawed on ice and deproteinized with the addition of 4 volumes of acetonitrile (for prednisolone and theophylline), vacuum evaporated and dissolved in water. Warfarin samples were instead deproteinized with 2 volumes of methanol and spun down for 5 minutes at 20000 g at 4° C. Supernatants were used for HPLC analysis.
# Reverse-phase HPLC detection was done as follows. Deproteinized samples (100 μl for prednisolone and theophylline, 30 μl for warfarin) were applied to a Hypersil C18, 3 μm, 15 cm HPLC column (Thermo Scientific). Starting eluent consisted of 6.8 mM ammoniumformate (pH 3.9), followed by several steps of linear gradients to different concentrations of acetonitrile (ACN) (Biosolve, Valkenswaard, The Netherlands). […] Detection of prednisolone was performed at λabs=254 nm, theophylline at λabs=270 nm, warfarin at λexc=310 nm/λem=390 nm. Quantification was done by using calibration curves of prednisolone, theophylline, or warfarin.
# HepaRG monolayers = details: cited from earlier work
# HepaRG cells [2] = test: Lactate production after culture with DMSO; type: cell-based, human
# Experimental: The cultures were washed twice with PBS and then exposed to phenol-red free HepaRG culture medium with 1.5 mM ^15NH4Cl (Sigma), 2.27 mM D-galactose (Sigma), and 2 mM L-lactate (Sigma) without DMSO. Medium samples were taken after 45 min, 8 and 24 hours of incubation. Production or elimination rates were established by calculating the concentration changes of different compounds, as indicated below, in the test media in time, and were corrected for protein content per well.
# HepaRG cells [3] = details: human, 14 days, 1.7 %
# Experimental: For testing, the cells were fully matured during 28 days in 12- or 24-well culture plates. […] For testing the effect of CAR overexpression HepaRG and HepaRG-CAR cultures of similar passage (±1 passage) were compared, between passage 15-19.
# (§4) Protein levels of cell cultures were assessed with the Bio-Rad Protein Assay (Bio-Rad, Hercules, Calif.) according to manufacturer's instructions after lysis in 0.2 M NaOH for 1 h at 37° C.
# HepG2 cells [4] = details: human, 1.7 %
# Experimental: HepG2 cells were maintained in T75 flasks until 80-90% confluency after which they were propagated in new flasks. The cells were propagated similarly as HepaRG cells. HepG2 cells were seeded at a 1:3-1:4 ratio in 12 or 24 well plates.
# as §4
# HepG2 cells [5] = test: Mitochondrial content (mitochondrial to nuclear DNA ratio) after culture with DMSO; type: cell-based, human; details: HepG2-CAR cultured with DMSO vs HepG2-CAR without DMSO
# From the text: (§1) To assess the cellular mitochondrial content the inventors determined the mitochondrial/nuclear DNA ratio. Total DNA was isolated with the QIAamp DNA Mini Blood kit (QIAgen) according to manufacturer's instructions.
# (§2) For a list of PCR-primers used, see supplementary table 1.
# HepaRG cells [6] = test: as above; type: cell-based, human; details: vs cells not cultured in presence of DMSO
# From the text: as §1, §2
# CAR mRNA = CAR mRNA levels after culture with DMSO; type: cell-based, human
# Experimental: (§3) RT-qPCR measurements were performed on a Lightcycler 480 (Roche) with Sensifast SYBR Green master mix (Bioline) according to manufacturer's instructions. […] Normalized mRNA levels are expressed as a percentage of the mean mRNA levels of two human liver samples normalized to 18S rRNA. The human liver samples were obtained from two female patients with liver adenoma and no elevated liver damage. […] The samples were taken after obtaining written informed consent and the procedure was approved by the Academic Medical Center's committee on human experimentation (protocol number 03/024).
# CAR target gene CYP2B6 = test: CYP induction: CYP2B6 transcript levels after CITCO (CAR inducer); type: cell-based, human
# AHR target gene CYP1A2 = details: 24 h, 40 μM
# Experimental: as §3
# Transcript levels of CYP genes were compared in cultures with and without induction.
smiles,measurement,setting,value
CC(=O)CC(c1ccccc1)c1c(O)c2ccccc2oc1=O (centres unmarked) [warfarin],clearance rate in HepaRG-CAR cultured with DMSO compared to all other conditions,[1],cleared at an increased rate
same,period of linear clearance,"[1]; human, 1 μM",24 to 48 h
C[C@]12C=CC(=O)C=C1CC[C@@H]1[C@@H]2[C@@H](O)C[C@@]2(C)[C@H]1CC[C@]2(O)C(=O)CO [prednisolone],clearance rate in HepaRG-CAR cultured with DMSO compared to all other conditions,[1],cleared at an increased rate
"C[S+](C)[O-] [DMSO, dimethyl sulfoxide]",increase of cell leakage,HepaRG monolayers,3- to 4 fold
same,reduction of total cellular protein content,HepaRG monolayers,more than 50%
same,reduction of lactate production,HepaRG cells [2]; HepaRG-CAR monolayer cultured with DMSO vs control cells without DMSO,92%
same,reduction of lactate production,HepaRG cells [2]; control HepaRG monolayer cultured with DMSO vs control cells without DMSO,57%
same,reduction of protein content,HepaRG cells [3],40%
same,reduction of total protein content,HepaRG cells [3],19%
same,reduction of total protein content,HepG2 cells [4],15%-18
same,increase of mitochondrial to nuclear DNA ratio,HepG2 cells [5],1.3 ×
same,increase of mitochondrial to nuclear DNA ratio,HepaRG cells [6]; HepaRG-CAR monolayer,2 ×
same,increase of mitochondrial to nuclear DNA ratio,HepaRG cells [6]; unmodified HepaRG monolayer,1.8 ×
same,"CAR mRNA level, of human liver",CAR mRNA; control HepaRG cells cultured with DMSO (5.3% without),15%
same,"CAR mRNA level, of human liver",CAR mRNA; modified HepaRG cells cultured with DMSO (108% without),208%
Clc1ccc(-c2nc3sccn3c2/C=N/OCc2ccc(Cl)c(Cl)c2)cc1 [CITCO],fold induction of CYP2B6 transcript,"CAR target gene CYP2B6; CITCO 1 μM, 24 h, control and modified HepaRG monolayers, independent of DMSO treatment",4.2-6.1 ×
same,fold induction of CYP2B6 transcript,"CAR target gene CYP2B6; control HepaRG BALIAD culture without DMSO, CITCO 24 h",6.5 ×
same,fold induction of CYP2B6 transcript,"CAR target gene CYP2B6; modified HepaRG BALIAD culture without DMSO, CITCO 24 h",3.6 ×
same,"total CYP2B6 mRNA level after induction, of human liver","CAR target gene CYP2B6; modified HepaRG BALIAD, CITCO 24 h",≤ 1023%
same,"total CYP2B6 transcript level after induction, of human liver","CAR target gene CYP2B6; modified HepaRG monolayer, CITCO 24 h",≤ 430%
"Cn1c(=O)c2[nH]cnc2n(C)c1=O [theophylline, theophylline anhydrous]",clearance,[1],could not reliably observe any clearance
COc1ccc2[nH]c([S+]([O-])Cc3ncc(C)c(OC)c3C)nc2c1 (centres unmarked) [omeprazole],"total CYP1A2 mRNA level after induction, of human liver",AHR target gene CYP1A2,≤ 31%
same,"total CYP1A2 transcript level after induction, of human liver",AHR target gene CYP1A2,≤ 23%
